The test system of assay [1] is Mycobacterium tuberculosis. The experiment in a line: Antituberculosis activity against Mycobacterium tuberculosis H37Rv after 5 days by MABA method. The assay is classed as functional. The settings on record: 120 h. On the technique in general: The colour change of resazurin is a common sign of viable cells or microbes.
The test system of assay [2] is Mycobacterium tuberculosis. The experiment in a line: Potency index, ratio of streptomycin MIC to compound MIC for Mycobacterium tuberculosis H37Rv. The assay is classed as functional.

By MIC is commonly meant the lowest concentration found to suppress growth. High values mean weaker potency, low ones greater potency.

≈ marks a conversion by molar mass, not a printed value.

For the compound `CN[C@@H]1[C@H](O[C@H]2[C@H](O[C@H]3[C@H](O)[C@@H](O)[C@H](N=C(N)N)[C@@H](O)[C@@H]3N=C(N)N)O[C@@H](C)[C@]2(O)C=O)O[C@@H](CO)[C@H](O)[C@H]1O` [STREPTOMYCIN], the MIC in assay [1] worked out at 10.7 µM (≈ 6.22 µg/mL).
Same read-out and setting: under `O=c1cc(Cn2cc(CSc3nc4ccccc4[nH]3)nn2)c2ccc(Cl)cc2o1` stands 7.3 µM (≈ 3.09 µg/mL); under `COc1ccc2c(Cn3cc(CSc4nc5ccccc5[nH]4)nn3)cc(=O)oc2c1`, 59.6 µM (≈ 25 µg/mL); under `O=c1cc(Cn2cc(CSc3nc4ccccc4[nH]3)nn2)c2c(ccc3ccccc32)o1`, 14.2 µM (≈ 6.24 µg/mL).
Still for that read-out and setting: under `Cc1ccc2oc(=O)cc(Cn3cc(CSc4nc5ccccc5[nH]4)nn3)c2c1` stands 7.7 µM (≈ 3.11 µg/mL); under `O=c1cc(Cn2cc(CSc3nc4ccccc4[nH]3)nn2)c2cc(Cl)ccc2[nH]1`, 29.6 µM (≈ 12.5 µg/mL); under `O=c1cc(Cn2cc(CSc3nc4ccccc4[nH]3)nn2)c2ccc(Cl)cc2[nH]1`, 14.8 µM (≈ 6.26 µg/mL).
In assay [1], `Cc1cc(C)c2c(Cn3cc(CSc4nc5ccccc5[nH]4)nn3)cc(=O)oc2c1` showed an MIC of 3.8 µM (≈ 1.59 µg/mL). In addition, the Ratio in assay [2] came out at 3.
As for `COc1ccc2oc(=O)cc(Cn3cc(CSc4nc5ccccc5[nH]4)nn3)c2c1`, the lowest concentration to inhibit growth in assay [1] (MIC) was 29.8 µM (≈ 12.5 µg/mL).
`O=c1cc(Cn2cc(CSc3nc4ccccc4[nH]3)nn2)c2ccc(O)cc2o1` yielded an MIC in assay [1] of 30.8 µM (≈ 12.5 µg/mL).
Still for that read-out and setting: with `O=c1cc(Cn2cc(CSc3nc4ccccc4[nH]3)nn2)c2ccccc2[nH]1` the figure was 32.2 µM (≈ 12.5 µg/mL).
The same measure, in the same setting: with `O=C(O)c1cn(C2CC2)c2cc(N3CCNCC3)c(F)cc2c1=O` [CIPROFLOXACIN] the figure was 9.4 µM (≈ 3.11 µg/mL); with `O=c1cc(Cn2cc(CSc3nc4ccccc4[nH]3)nn2)c2ccc3ccccc3c2o1`, 28.4 µM (≈ 12.5 µg/mL).
On to `Cc1ccc2c(Cn3cc(CSc4nc5ccccc5[nH]4)nn3)cc(=O)oc2c1C`, for which the MIC in assay [1] is 3.8 µM (≈ 1.59 µg/mL). Besides, the Ratio in assay [2] is 3.
On to `NC(=O)c1cnccn1` [PYRAZINAMIDE], for which the lowest concentration to inhibit growth in assay [1] (MIC) was 25.3 µM (≈ 3.11 µg/mL).
As to `Cc1cccc2c(Cn3cc(CSc4nc5ccccc5[nH]4)nn3)cc(=O)[nH]c12`, the MIC in assay [1] came out at 7.7 µM (≈ 3.1 µg/mL).
The same measure, in the same setting: with `Cc1ccc2c(Cn3cc(CSc4nc5ccccc5[nH]4)nn3)cc(=O)oc2c1` the figure was 7.7 µM (≈ 3.11 µg/mL).
